What was measured:
[1] = Metabolic stability in human liver microsomes (microsomal clearance); format: in vitro ADME; details: pH 7.4; human liver microsomes 0.25 mg protein/mL, 0.5 μM compound, NADPH, 37° C.; read-out: mClint
Description: Samples of the tested compounds (0.5 μM) were preincubated together with human liver microsomes (0.25 mg of microsomal protein/mL) in 0.05 M potassium phosphate buffer of pH 7.4 in microtiter plates at 37° C. for 5 minutes. The reaction was started by adding NADPH (1.0 mM). After 0, 5, 10, 15, 20 and 30 minutes, an aliquot was removed, the reaction was cooled and stopped by adding twice the amount of quench solution consisting of acetonitrile/methanol 1:1, and containing 0.2 μM carbutamide as internal standard. The samples were frozen until analyzed. The remaining concentration of undegraded test substance was determined by liquid chromatography-tandem mass spectrometry (LC-MS/MS). The half-life (t1/2) was determined from the gradient of the ratio of the signal of (test substance/internal standard)/unit time plot, allowing the calculation of the half-life of the test substance, assuming first order kinetics, from the decrease in the concentration of the compound with time. The microsomal clearance (mClint) was calculated as follows: mClint=((ln(2)/t 1/2)/Microsomal Protein Concentration (mg/ml))*1000, leading to the unit of μL/min/mg.

h-5-HT6 receptor = target: T1, h-5-HT6 receptor (Homo sapiens, UniProt P50406); test: 5-HT6 receptor binding assay (displacement of [3H]-LSD); details: cloned human 5-HT6 receptor, HEK293 membranes, 1 nM [3H]-LSD
T1 construct: expressed in transfected cells
T1 sequence (P50406 whole entry): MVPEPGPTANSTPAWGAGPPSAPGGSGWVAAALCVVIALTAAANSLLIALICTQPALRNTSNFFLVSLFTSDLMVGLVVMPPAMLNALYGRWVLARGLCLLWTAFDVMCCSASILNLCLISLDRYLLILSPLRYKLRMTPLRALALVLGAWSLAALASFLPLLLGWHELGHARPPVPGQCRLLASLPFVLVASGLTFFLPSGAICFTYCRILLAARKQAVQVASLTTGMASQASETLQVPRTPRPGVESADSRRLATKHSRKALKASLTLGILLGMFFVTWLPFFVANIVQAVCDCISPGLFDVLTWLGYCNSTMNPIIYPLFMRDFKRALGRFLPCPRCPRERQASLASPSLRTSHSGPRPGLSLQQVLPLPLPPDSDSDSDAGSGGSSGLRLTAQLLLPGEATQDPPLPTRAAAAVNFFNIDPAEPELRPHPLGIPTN
Description: Displacement of radioligands binding to the following cloned human receptors
1. Preparation of Membranes by Ultrasonic Treatment and Differential Centrifugation
Cells from stable clonal cell lines expressing the corresponding receptor (5-HT6, α1-adrenergic, dopamine D2 or histamine H1 receptors) were washed with PBS (w/o Ca^++, Mg^++) and harvested in PBS with 0.02% EDTA. The cells were collected by centrifugation at 500 g for 10 min. at 4° C., washed with PBS and centrifuged (500 g, 10 min. 4° C.). The pellets were stored at −80° C. until use. For membrane preparation, the thawed cell pellet was resuspended in ice-cold sucrose buffer (0.25 M sucrose, 10 mM Hepes (pH 7.4), 1 mM Phenylmethylsulfonyl fluoride (PMSF) in DMSO, 5 μg/ml Pepstatin-A, 3 mM EDTA, 0.025% Bacitracin) and homogenized with a Branson Sonifier W-250 (Settings: Timer 4; Output Control 3; Duty Cycle constant; 2 to 3 cycles). Cell disruption was checked with the aid of a microscope. Remaining unbroken cells were pelleted at 1.000 g for 10 min. at 4° C. The sucrose buffer supernatant was then centrifuged at 60.000 g for 1 h at 4° C. (Beckman Ultrazentrifuge XL 80). The pellet was resuspended in 30 ml ice-cold Tris buffer (20 mM TRIS (pH 7.4), 5 μg/ml Pepstatin A, 0.1 mM PMSF, 3 mM EDTA) by pipetting through a 10 ml serological pipet and centrifuged for 1 h at 4° C. at 60.000 g. A final resuspension was performed in a small volume of ice-cold Tris buffer (see above) by pressing through a serological pipet followed by ultrasonic treatment with a Branson Sonifier W-250 (Settings: Timer 1; Output Control 3; Duty Cycle constant; 1 cycle). Protein concentration was determined (BCA-Kit; Pierce) and aliquots stored at −80° C. or in liquid nitrogen for long-term storage.
2. Receptor Binding Experiments
All receptor binding experiments were carried out in the corresponding assay buffer in a total volume of 200 μl in the presence of various concentrations of test compound (10^−5 M to 10^−9 M, tenfold serial dilution, duplicate determinations). The assays were terminated by filtration on polyethylenimine (PEI 0.1% or 0.3%) presoaked Packard Unifilter Plates (GF/C or GF/B) with a Tomtec MachIII U 96 well-plate harvester. After the plates had been dried for 2 h at 55° C. in a drying chamber scintillation cocktail (BetaPlate Scint; PerkinElmer) was added. Radioactivity was measured in a Microbeta Trilux two hours after the addition of the scintillation mixture. Data derived from liquid scintillation counting were analysed by iterative non-linear regression analysis with the use of the Statistical Analysis System (SAS): a program similar to “LIGAND” as described by Munson and Rodbard (Analytical Biochemistry 107, 220-239 (1980).
a) 5-HT6 Receptor Binding Assay
HEK293 cells stably expressing the h-5-HT6 receptor (NCBI Reference Sequence XM 001435) were cultured in RPMI1640 medium supplemented with 25 mM HEPES, 10% fetal calf serum and 1-2 mM glutamine. The membrane preparation was performed as described in section 1. […] Non-specific binding was defined with 1 μM methiothepin. The binding reaction was carried out for 3.5 h at room temperature. During the incubation, the plates were shaken on a plate shaker at 100 rpm and terminated by filtration on Packard Unifilter GF/C (0.1% PEI) plates, followed by 2 wash cycles with ice-cold 50 mM Tris-HCl, 5 mM CaCl2.
Data derived from liquid scintillation counting were analyzed by iterative non-linear regression analysis with the use of the Statistical Analysis System (SAS): a program similar to “LIGAND” as described by Munson and Rodbard (Anal. Biochem. 1980, 107, 220-239). Fitting was performed according to formulae described by Feldman (Anal. Biochem. 1972, 48, 317-338). IC50, nH and Ki values were expressed as geometrical mean.

Row | microsomal CLint at 0.5 μM [1] [µL/min/mg] | Ki (h-5-HT6 receptor) [nM] | SMILES
1 | < 30 | 10 to 100 | O=C(O)C1CN(c2cccc3cc(S(=O)(=O)c4cccc(C(F)(F)F)c4)cnc23)C1 [Example 44, 1-[3-[3-(Trifluoromethyl)phenyl]sulfonyl-8-quinolyl]azetidine-3-carboxylic Acid]
2 | < 30 | < 10 | O=S(=O)(c1ccccc1)c1cnc2c(N3C[C@@H](O)[C@H](O)C3)cccc2c1 [Example 45, (3R,4R)-1-[3-(Benzenesulfonyl)-8-quinolyl]pyrrolidine-3,4-diol]

Reference: patent US10160744B2, “Quinoline compounds suitable for treating disorders that respond to the modulation of the serotonin 5-HT6 receptor” (Abbvie Deutschland GmbH & Co. KG, priority 2016, dated 2018)
